Measured values published in paper PMC12040169 (PLOS Biology, 2025).

assay: in vitro; conditions: human, hela cells, % viability

Compared with `CSc1nnc(-c2cccs2)n1C` [CBK067702], `CCn1c(SCC(=O)O)nnc1-c1ccco1` [CBK068633] is lower in viability at 28.5 h, 10 µM: 87.9% for the first, 86.8% for the second.

Compared with `O=c1c(-c2nnc(SCc3cccc(C(F)(F)F)c3)o2)cccn1Cc1ccccc1` [CBK067712], `Cc1nc(-c2nnc(SCc3ccc(C(F)(F)F)cc3)o2)cs1` [CBK067715] is lower in viability at 28.5 h, 10 µM: 108% for the first, 95.1% for the second.

Compared with `Cc1cc(-c2nnc(SCc3ccc(Cl)cc3)n2C)no1` [CBK067720], `CC(C)C1OC(NCc2ccc(Cl)cc2)=NC1=O` (centres unmarked) [CBK070352] is lower in viability at 28.5 h, 10 µM: 112% for the first, 94.9% for the second.

Going from `Cc1sc(-c2c(F)cccc2F)nc1O` [CBK067729] to `Cc1sc(-c2cnccn2)nc1O` [CBK067738], the viability at 28.5 h, 10 µM falls from 102% to 97.3%.

First: Cc1sc(-c2ccc(Cl)nc2)nc1OC(=O)c1cccs1 [CBK067733]
Second: Cc1sc(-c2cccs2)nc1OC(=O)c1cccc(C(F)(F)F)c1 [CBK067748]
The viability at 28.5 h, 10 µM of the first is lower: 94.5% for the first, 96.1% for the second.

First: CC(C)(C)c1ccc(-c2nc(O)c(CC(=O)O)s2)cc1 [CBK067734]
Second: CCNC(=O)Nc1ncc(-c2ccc(C(C)(C)C)cc2)c2cccnc12 [CBK070632]
The viability at 28.5 h, 10 µM of the first is higher: 99.6% for the first, 98.6% for the second.

Going from `CC(=O)Nc1onc(C)c1-c1nc(-c2ccc(Cl)cc2Cl)cs1` [CBK067735] to `O=C1CC(c2cccnc2)=NN1c1ccc(Cl)cc1Cl` [CBK067764], the viability at 28.5 h, 10 µM falls from 101% to 97.7%.

Compared with `COc1ccc(/C=C2\SC(Nc3ccc(Cl)c(C(=O)O)c3)=NC2=O)cc1C` [CBK067743], `CCN(CC)CCN(Cc1cc2ccc(C)cc2[nH]c1=O)C(=O)Nc1ccc(Cl)cc1` [CBK068680] is lower in viability at 28.5 h, 10 µM: 99.1% for the first, 84.9% for the second.

Going from `O=C1N/C(=N/c2ccccc2Cl)S/C1=C/c1ccc(-c2ccccc2Cl)o1` [CBK067752] to `Cc1nn(-c2ccccc2)c(O)c1Cc1c(Cl)cccc1Cl` [CBK067760], the viability at 28.5 h, 10 µM rises from 89.3% to 98.1%.

`CC1=NN(c2ccc(Cl)c(Cl)c2)C(=O)C1` [CBK067761] and `COc1cccc(CCN2N=C(C)CC2=O)c1OC` [CBK067766] are the same in viability at 28.5 h, 10 µM: 100% for the first, 100% for the second.

First: Cc1cc(SCC2=NNC(=O)C2)c(Cl)cc1Cl [CBK067769]
Second: Cc1ccc2nc(SCC(=O)Nc3ccccc3Br)c(C#N)cc2c1 [CBK068169]
The viability at 28.5 h, 10 µM of the first is lower: 92.8% for the first, 94.4% for the second.

Going from `CC1=NN(c2ccccc2)C(=O)C1C(=O)c1ccc(Br)cc1` (centres unmarked) [CBK067771] to `COc1ccc(-c2nnc(SCC(=O)c3ccccc3)o2)cc1` [CBK069390], the viability at 28.5 h, 10 µM rises from 98.1% to 100%.

First: CN1N=C(c2ccccc2)CC1=O [CBK067774]
Second: CCNC(=O)Nc1ncc(-c2ccccc2)c2cccnc12 [CBK070624]
The viability at 28.5 h, 10 µM of the first is higher: 96.4% for the first, 95.3% for the second.

Compared with `Cc1nn(C)c(Cl)c1S(=O)(=O)Nc1cc(NC2CCNC2)c2occc2c1` (centres unmarked) [CBK067807C], `CC1CCCCN1CCCNc1cc(NS(=O)(=O)c2cn(C)cn2)cc2ccoc12` (centres unmarked) [CBK067940C] is lower in viability at 28.5 h, 10 µM: 99.3% for the first, 94.5% for the second.

Going from `CCN(CC)C(=O)c1sc2ccccc2c1Cl` [CBK067853] to `CCCCOc1ccc(-c2nnn(CC(=O)NCc3ccccc3)n2)cc1` [CBK068557], the viability at 28.5 h, 10 µM falls from 103% to 96.8%.

Going from `O=C1N=C(NC2CCCCCC2)SC1Cc1ccc(O)cc1` (centres unmarked) [CBK067868] to `O=C1N=C(NC2CCCCC2)SC1Cc1nc2ccccc2o1` (centres unmarked) [CBK067970], the viability at 28.5 h, 10 µM falls from 109% to 96.4%.

First: CCN1CCC[C@@H]1CNc1cc(NS(=O)(=O)c2cccs2)cc2ccoc12 [CBK067904C]
Second: COc1cccc(NC(=O)CCS(=O)(=O)c2cccs2)c1 [CBK071069]
The viability at 28.5 h, 10 µM of the first is lower: 83.3% for the first, 100% for the second.

Compared with `O=C1N=C(NCC2CCCCC2)SC1CC(=O)N1CCCC(O)C1` (centres unmarked) [CBK067919], `CCN(CC)C(=O)CC1SC(NCC2CCCCC2)=NC1=O` (centres unmarked) [CBK067923] is lower in viability at 28.5 h, 10 µM: 109% for the first, 92.9% for the second.

First: O=S(=O)(c1ccc(Cl)cc1)N1CCN(c2ccccc2)CC1 [CBK067987]
Second: Cc1ccc(S(=O)(=O)N2CCN(C(=O)c3ccco3)CC2)cc1 [CBK068166]
The viability at 28.5 h, 10 µM of the first is higher: 100% for the first, 92.8% for the second.

Going from `O=C(CSc1nnc(-c2ccccc2O)o1)c1ccc(Cl)cc1` [CBK068032] to `O=C(CSc1nnc(-c2ccncc2)o1)c1ccccc1` [CBK070562], the viability at 28.5 h, 10 µM falls from 98.4% to 87.5%.

Compared with `Cc1ccc(C)c2[nH]c(=O)c(CN(Cc3cccnc3)C(=O)NC3CCCCC3)cc12` [CBK068091], `CCNC(=O)Nc1cc2cccnc2nc1-c1ccc2c(c1)OCCCO2` [CBK070695] is lower in viability at 28.5 h, 10 µM: 98.2% for the first, 97.1% for the second.

First: Cc1cccc(-c2nnn(CC(=O)O)n2)c1 [CBK068105]
Second: COc1cccc(-c2nnn(CC(=O)O)n2)c1 [CBK068202]
The viability at 28.5 h, 10 µM of the first is higher: 102% for the first, 94.9% for the second.

First: O=C(c1ccco1)N1CCN(C(=O)c2ccco2)CC1 [CBK068272]
Second: O=C(Cc1ccccc1)N1CCC(c2nc3ccccc3s2)CC1 [CBK070145]
The viability at 28.5 h, 10 µM of the first is lower: 86.4% for the first, 92.6% for the second.

First: CCCCOc1ccc(-c2nnn(C(C)C(=O)OCC)n2)cc1 (centres unmarked) [CBK068558]
Second: CCNC(=O)Nc1ncc(-c2ccc(OC(F)(F)F)cc2)c2cccnc12 [CBK070690]
The viability at 28.5 h, 10 µM of the first is lower: 88.6% for the first, 94% for the second.

Going from `COc1ccc2cc(C#N)c(SCC(=O)Nc3ccc(F)cc3)nc2c1` [CBK068765] to `CCNC(=O)Nc1ccc2ccc(-c3ccc(SC)cc3)nc2n1` [CBK070656], the viability at 28.5 h, 10 µM rises from 85.7% to 90.9%.

Going from `CC(=O)c1ccc(S(=O)(=O)N2CCCCC2C)cc1` (centres unmarked) [CBK069211] to `COC(=O)c1ccc(S(=O)(=O)N2CCC(C)CC2)cc1` [CBK070414], the viability at 28.5 h, 10 µM rises from 90% to 98.1%.

`c1ccc(CCn2nnnc2CN2CCN(c3ccccc3)CC2)cc1` [CBK069271] and `O=C(CSCc1nc2ccccc2c(=O)n1-c1ccccc1Cl)Nc1ccccc1` [CBK070895] are the same in viability at 28.5 h, 10 µM: 95.2% for the first, 95.2% for the second.

Going from `CCOC(=O)c1ccc(S(=O)(=O)N2CCCCC2)cc1` [CBK069738] to `COc1ccc(Cl)cc1NC(=O)C1CCCN1S(=O)(=O)c1ccc(F)cc1` (centres unmarked) [CBK069866], the viability at 28.5 h, 10 µM rises from 106% to 108%.

Going from `CC(C)C1OC(NC2CC(C)(C)NC(C)(C)C2)=NC1=O` (centres unmarked) [CBK070360T] to `CCNC(=O)Nc1ccc2c(-c3ccc4c(c3)CCO4)ccnc2n1` [CBK070673], the viability at 28.5 h, 10 µM falls from 97.1% to 96.2%.

Going from `CCNC(=O)Nc1ncc(-c2cc(OC)c(OC)c(OC)c2)c2cccnc12` [CBK070635] to `CCNC(=O)Nc1ncc(-c2ccc(Oc3ccccc3)cc2)c2cccnc12` [CBK070636], the viability at 28.5 h, 10 µM rises from 83.2% to 104%.

Going from `CCNC(=O)Nc1cc2cccnc2nc1-c1cc(F)cc(F)c1` [CBK070638] to `CCNC(=O)Nc1cc2cccnc2nc1-c1cccc(C(F)(F)F)c1` [CBK070645], the viability at 28.5 h, 10 µM falls from 97% to 94.1%.

First: CCNC(=O)Nc1ccc2ccc(-c3cccnc3)nc2n1 [CBK070652]
Second: CCNC(=O)Nc1ccc2ccc(-c3ccsc3)nc2n1 [CBK070699]
The viability at 28.5 h, 10 µM of the first is higher: 85% for the first, 73.5% for the second.

First: CCNC(=O)Nc1ccc2c(-c3cccc(C(F)(F)F)c3)ccnc2n1 [CBK070678]
Second: Cc1c(Br)c(C(F)(F)F)nn1CC(=O)N1CCCC1 [CBK071473]
The viability at 28.5 h, 10 µM of the first is higher: 93.7% for the first, 92.9% for the second.

Compared with `CN1CCN(c2ccc3ccn(S(=O)(=O)c4ccc([N+](=O)[O-])cc4)c3n2)CC1` [CBK070757C], `CN1CCN(CCC(=O)Nc2cccc(Cl)c2)CC1` [CBK070793C] is higher in viability at 28.5 h, 10 µM: 104% for the first, 108% for the second.
